Laboratory results reported in article PMC8745345, “Hydroxy Pentacyclic Triterpene Acid, Kaempferol, Inhibits the Human 5-Hydroxytryptamine Type 3A Receptor Activity” (International Journal of Molecular Sciences, 2022).
Positions count from the first letter of the chain named.

Legend:
[1] = molecular target: T1, human 5-HT3A receptor R65A mutant (Homo sapiens, UniProt P46098, R87A); assay: Two-electrode voltage clamp, I5-HT inhibition, R65A mutant; format: cell-based; details: −80 mV
T1 sequence (P46098 24-478 R87A): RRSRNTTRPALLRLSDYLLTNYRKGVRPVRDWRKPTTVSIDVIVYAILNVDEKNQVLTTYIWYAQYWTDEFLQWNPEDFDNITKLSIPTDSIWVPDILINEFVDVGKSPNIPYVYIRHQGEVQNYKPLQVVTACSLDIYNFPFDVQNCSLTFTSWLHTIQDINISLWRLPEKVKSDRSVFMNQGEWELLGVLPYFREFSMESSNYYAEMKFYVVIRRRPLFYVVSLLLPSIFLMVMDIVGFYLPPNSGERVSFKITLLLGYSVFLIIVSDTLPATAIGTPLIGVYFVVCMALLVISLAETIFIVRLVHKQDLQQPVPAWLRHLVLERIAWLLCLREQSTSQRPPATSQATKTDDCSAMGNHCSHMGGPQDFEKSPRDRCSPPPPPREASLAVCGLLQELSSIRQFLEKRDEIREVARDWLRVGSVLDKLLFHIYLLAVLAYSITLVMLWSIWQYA
Description: Xenopus oocytes were used in this study as cells for expression of human 5-HT3A receptor. All female frogs used in this experiment were obtained from the Korean Xenopus Resource Center for Research (KXRCR000001). […] Xenopus oocytes were extracted during ice incubation state and isolated as single oocytes using collagenase II (2 mg/mL) in OR2 buffer (82.5 mM NaCl, 2 mM KCl, 1 mM MgCl2, 5 mM HEPES, pH 7.4). Isolated oocytes were incubated with ND96 incubation buffer (96 mM NaCl, 2 mM KCl, 1 mM MgCl2, 1.8 mM CaCl2, 5 mM HEPES, 2.5 mM sodium pyruvate, and 50 mg/mL gentamycin, pH 7.4) at 18 °C until the experiment was performed. Human 5-HT3A receptor mRNA was injected into oocytes using a nanoinjector (Drummond Scientific, Broomall, PA, USA) with a mineral-filled 10 μL microdispenser (VWR, Piscataway, NJ, USA).
To confirm the KAE activity on the human 5-HT3A receptor, a two-electrode voltage clamp (OC-725C; Warner Instruments, Hamden, CT, USA) with a Digitata 1550A was used. For the experiment, induced-inward current was converted to digital data with pClamp 10 software (Axon Instruments, Union City, CA, USA). All experiments were performed at room temperature using an oocyte clamp equipped with Digidata. The membrane holding potential was −80 mV.

[2] = molecular target: T2, human 5-HT3A receptor I210A mutant (Homo sapiens, UniProt P46098); assay: Two-electrode voltage clamp, I5-HT inhibition, I210A mutant; format: cell-based; details: −80 mV
T2 sequence (P46098 24-478): T1 sequence (P46098 24-478 R87A) with A64R
Description: Human 5-HT3A receptor cDNA was linearized using restriction enzyme XhoI. In vitro transcription was performed using an mMESSAGE mMACHINE T7 Transcription Kit (Thermo Fisher Scientific, Waltham, MA, USA). The final mRNA product was dissolved in 1X Diethyl Pyrocarbonate (RNase-free water) at a final concentration of 1 μg/μL and kept in a deep-freezer at −80 °C until used.
Xenopus oocytes were used in this study as cells for expression of human 5-HT3A receptor. All female frogs used in this experiment were obtained from the Korean Xenopus Resource Center for Research (KXRCR000001). Xenopus management followed the guideline of Chonnam National University institution guidelines (CNU IACUC-YB-2016-07, July 2016). Xenopus oocytes were extracted during ice incubation state and isolated as single oocytes using collagenase II (2 mg/mL) in OR2 buffer (82.5 mM NaCl, 2 mM KCl, 1 mM MgCl2, 5 mM HEPES, pH 7.4). […]
The voltage relationship experiment for confirming the relationship between induce-inward current and voltage, the voltage was varied from −80 mV to +60 mV using a ramp protocol. […] All recording data were analyzed using Clampfit 9.0 (Molecular Devices, San Jose, CA, USA). […]
All presented experiments were performed at least three times for scientific verification. […] Induced-inward current data were analyzed with SigmaPlot 10.0 software (Systat Software, Inc., San Jose, CA, USA). […]

For `O=c1c(O)c(-c2ccc(O)cc2)oc2cc(O)cc(O)c12` [KAE, kaempferol], the IC50 [1] was 44.7 ± 9.1 µM, the Vmax [1] was 82.6 ± 7.4% and the “n (Hill coefficient)” value [1] was 1.8 ± 0.7. The IC50 [2] was 35.4 ± 9.7 µM and the “n (Hill coefficient)” value [2] was 1.8 ± 0.5.
